Results: ChEMBL document CHEMBL3137667, “[Drug-induced liver injury; fourteenth updated edition of the bibliographic database of liver injuries and related drugs]” (Gastroenterol Clin Biol, 2004)

Key:
[1] = human
[2] = Highest frequency of moderate liver toxicity observed during clinical trials, expressed as a percentage. [column '% BIOL' in source]; conditions: human
[3] = human, serum
[4] = Times to onset, minimal and maximal, observed in the indexed observations. [column 'DELAI' in source]; conditions: human
[5] = human; remark: listed apart in the source
[6] = human; remark: listed apart in the source
[7] = human, serum, 4383 h
[8] = Highest frequency of acute liver toxicity observed during clinical trials, expressed as a percentage. [column '% AIGUE' in source]; conditions: human
[9] = human; remark: listed apart in the source
[10] = human; remark: listed apart in the source
[11] = human; remark: listed apart in the source
[12] = human; remark: listed apart in the source
[13] = human, serum; remark: listed apart in the source
[14] = human; remark: listed apart in the source
[15] = human; remark: listed apart in the source
[16] = Comments (NB not yet translated). [column 'COMMENTAIRES' in source]; conditions: human
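For Hepatotoxicity (association with vascular disease) in this document: count of indexed literature references reporting vascular liver injury in humans, e.g. peliosis hepatitis, hepatic veno-occlusive disease or Budd-Chiari syndrome.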
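For Hepatotoxicity (benign tumour) in this document: value is a count of indexed literature references citing a benign tumour confirmed by histopathology.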
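For Hepatotoxicity (choleostasis) in this document: human cholestatic liver injury, shown by histopathology or by peak ALT or AST elevation over alkaline phosphatase ratio below 2, value counts indexed literature reports.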
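For Hepatotoxicity (chronic liver disease) in this document: chronic liver injury confirmed by histopathology or persistently raised serum aminotransferase activity beyond 6 months, value given as the count of indexed literature references.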
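For Hepatotoxicity (cirrhosis) in this document: value is a count of indexed literature references reporting cirrhosis confirmed by histopathology.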
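For Hepatotoxicity (cytolytic) in this document: human cytolytic liver injury, shown by histopathology or by a ratio above 5 of peak ALT or AST elevation to alkaline phosphatase elevation, value counts indexed references.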
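For Hepatotoxicity (granulomatous hepatitis) in this document: value is a count of indexed literature references reporting granulomatous liver disease confirmed by histopathology.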
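For Hepatotoxicity (malignant tumour) in this document: malignant tumour confirmed by histopathology, value gives the count of indexed literature references reporting it.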
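For Hepatotoxicity (severe hepatitis) in this document: human clinical data: severe hepatitis, meaning potentially life-threatening liver failure or clinically observed cases, the value counts how many indexed literature references report it.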
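For Hepatotoxicity (steatosis) in this document: steatosis confirmed by histopathology, value is the count of indexed references.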

CCC1=C(C)CN(C(=O)NCCc2ccc(S(=O)(=O)NC(=O)N[C@H]3CC[C@H](C)CC3)cc2)C1=O [GLIMEPIRIDE]
Hepatotoxicity (severe hepatitis) [1]: 0
Hepatotoxicity (moderate) [2]: 0%
Hepatotoxicity (moderate) [3]: 0
Hepatotoxicity (time to onset) [4]: 2.5 months - 3.3 months
Hepatotoxicity (granulomatous hepatitis) [5]: 0
Hepatotoxicity (choleostasis) [6]: 1
Hepatotoxicity (chronic liver disease) [7]: 0
Hepatotoxicity (acute) [8]: 0%
Hepatotoxicity (steatosis) [9]: 0
Hepatotoxicity (benign tumour) [10]: 0
Hepatotoxicity (cytolytic) [11]: 1
Hepatotoxicity (cirrhosis) [12]: 0
Hepatotoxicity (acute) [13]: 2
Hepatotoxicity (malignant tumour) [14]: 0
Hepatotoxicity (association with vascular disease) [15]: 0
Hepatotoxicity (comment) [16]: CHOLANGIOLITE

N=C(N)c1ccc(/C=C/c2ccc(C(=N)N)cc2O)cc1 [HYDROXYSTILBAMIDINE]
Hepatotoxicity (severe hepatitis) [1]: 0
Hepatotoxicity (moderate) [2]: 0%
Hepatotoxicity (moderate) [3]: 0
Hepatotoxicity (time to onset) [4]: 1 month
Hepatotoxicity (granulomatous hepatitis) [5]: 0
Hepatotoxicity (choleostasis) [6]: 0
Hepatotoxicity (chronic liver disease) [7]: 0
Hepatotoxicity (acute) [8]: 0%
Hepatotoxicity (steatosis) [9]: 1
Hepatotoxicity (benign tumour) [10]: 0
Hepatotoxicity (cytolytic) [11]: 0
Hepatotoxicity (cirrhosis) [12]: 0
Hepatotoxicity (acute) [13]: 1
Hepatotoxicity (malignant tumour) [14]: 0
Hepatotoxicity (association with vascular disease) [15]: 0
Hepatotoxicity (comment) [16]: #S.REYE

CC(=O)[C@]1(O)Cc2c(O)c3c(c(O)c2[C@@H](O[C@H]2C[C@H](N)[C@H](O)[C@H](C)O2)C1)C(=O)c1ccccc1C3=O [IDARUBICIN]
Hepatotoxicity (severe hepatitis) [1]: 2
Hepatotoxicity (moderate) [2]: 18.2%
Hepatotoxicity (moderate) [3]: 7
Hepatotoxicity (time to onset) [4]: 8 days - 6 months
Hepatotoxicity (granulomatous hepatitis) [5]: 0
Hepatotoxicity (choleostasis) [6]: 0
Hepatotoxicity (chronic liver disease) [7]: 0
Hepatotoxicity (acute) [8]: 0%
Hepatotoxicity (steatosis) [9]: 0
Hepatotoxicity (benign tumour) [10]: 0
Hepatotoxicity (cytolytic) [11]: 1
Hepatotoxicity (cirrhosis) [12]: 0
Hepatotoxicity (acute) [13]: 1
Hepatotoxicity (malignant tumour) [14]: 0
Hepatotoxicity (association with vascular disease) [15]: 1
Hepatotoxicity (comment) [16]: HCF MVO REACTIVATION_HVB

CCCCC1=NC2(CCCC2)C(=O)N1Cc1ccc(-c2ccccc2-c2nnn[nH]2)cc1 [IRBESARTAN]
Hepatotoxicity (severe hepatitis) ([1]; Liver): 0
Hepatotoxicity (moderate) ([2]; Liver): 4.3%
Hepatotoxicity (moderate) [3]: 2
Hepatotoxicity (time to onset) [4]: 5 days - 4 weeks
Hepatotoxicity (granulomatous hepatitis) [5]: 0
Hepatotoxicity (choleostasis) [6]: 2
Hepatotoxicity (chronic liver disease) [7]: 0
Hepatotoxicity (acute) ([8]; Liver): 0%
Hepatotoxicity (steatosis) [9]: 0
Hepatotoxicity (benign tumour) [10]: 0
Hepatotoxicity (cytolytic) [11]: 0
Hepatotoxicity (cirrhosis) [12]: 0
Hepatotoxicity (acute) [13]: 2
Hepatotoxicity (malignant tumour) [14]: 0
Hepatotoxicity (association with vascular disease) [15]: 0
Hepatotoxicity (comment) [16]: CHOLESTASE_PROLONGEE

CC(=O)/N=c1/sc(S(N)(=O)=O)nn1C [METHAZOLAMIDE]
Hepatotoxicity (severe hepatitis) [1]: 0
Hepatotoxicity (moderate) [2]: 0%
Hepatotoxicity (moderate) [3]: 0
Hepatotoxicity (time to onset) [4]: 2 weeks
Hepatotoxicity (granulomatous hepatitis) [5]: 0
Hepatotoxicity (choleostasis) [6]: 1
Hepatotoxicity (chronic liver disease) [7]: 0
Hepatotoxicity (acute) [8]: 0%
Hepatotoxicity (steatosis) [9]: 0
Hepatotoxicity (benign tumour) [10]: 0
Hepatotoxicity (cytolytic) [11]: 0
Hepatotoxicity (cirrhosis) [12]: 0
Hepatotoxicity (acute) [13]: 1
Hepatotoxicity (malignant tumour) [14]: 0
Hepatotoxicity (association with vascular disease) [15]: 0
Hepatotoxicity (comment) [16]: CHOLESTASE_PROLONGEE

CCOc1ccc2ccccc2c1C(=O)N[C@@H]1C(=O)N2[C@@H]1SC(C)(C)[C@@H]2C(=O)O [NAFCILLIN]
Hepatotoxicity (severe hepatitis) [1]: 0
Hepatotoxicity (moderate) [2]: 25%
Hepatotoxicity (moderate) [3]: 4
Hepatotoxicity (time to onset) [4]: 1 day - 2 weeks
Hepatotoxicity (granulomatous hepatitis) [5]: 0
Hepatotoxicity (choleostasis) [6]: 3
Hepatotoxicity (chronic liver disease) [7]: 0
Hepatotoxicity (acute) [8]: 3.1%
Hepatotoxicity (steatosis) [9]: 0
Hepatotoxicity (benign tumour) [10]: 0
Hepatotoxicity (cytolytic) [11]: 1
Hepatotoxicity (cirrhosis) [12]: 0
Hepatotoxicity (acute) [13]: 5
Hepatotoxicity (malignant tumour) [14]: 0
Hepatotoxicity (association with vascular disease) [15]: 0
Hepatotoxicity (comment) [16]: RC/OXACILLINE/CEFALOTINE

C[C@]12CC[C@H]3[C@@H](CCC4=CC(=O)CC[C@@H]43)[C@@H]1CC[C@@H]2O [NANDROLONE]
Hepatotoxicity (severe hepatitis) [1]: 0
Hepatotoxicity (moderate) [2]: 0%
Hepatotoxicity (moderate) [3]: 0
Hepatotoxicity (time to onset) [4]: 4 months - 12 years
Hepatotoxicity (granulomatous hepatitis) [5]: 0
Hepatotoxicity (choleostasis) [6]: 1
Hepatotoxicity (chronic liver disease) [7]: 0
Hepatotoxicity (acute) [8]: 0%
Hepatotoxicity (steatosis) [9]: 1
Hepatotoxicity (benign tumour) [10]: 2
Hepatotoxicity (cytolytic) [11]: 3
Hepatotoxicity (cirrhosis) [12]: 0
Hepatotoxicity (acute) [13]: 7
Hepatotoxicity (malignant tumour) [14]: 0
Hepatotoxicity (association with vascular disease) [15]: 0
Hepatotoxicity (comment) [16]: CHOLESTASE_PROLONGEE

O=C(CCNNC(=O)c1ccncc1)NCc1ccccc1 [NIALAMIDE]
Hepatotoxicity (severe hepatitis) [1]: 0
Hepatotoxicity (moderate) [2]: 0%
Hepatotoxicity (moderate) [3]: 0
Hepatotoxicity (time to onset) [4]: 3 weeks
Hepatotoxicity (granulomatous hepatitis) [5]: 0
Hepatotoxicity (choleostasis) [6]: 1
Hepatotoxicity (chronic liver disease) [7]: 0
Hepatotoxicity (acute) [8]: 0%
Hepatotoxicity (steatosis) [9]: 1
Hepatotoxicity (benign tumour) [10]: 0
Hepatotoxicity (cytolytic) [11]: 2
Hepatotoxicity (cirrhosis) [12]: 0
Hepatotoxicity (acute) [13]: 2
Hepatotoxicity (malignant tumour) [14]: 0
Hepatotoxicity (association with vascular disease) [15]: 0
Hepatotoxicity (comment) [16]: RC/PHENIPRAZINE

CCOC(=O)C1=C(C)NC(C)=C(C(=O)OC)C1c1cccc([N+](=O)[O-])c1 (stereo not drawn) [NITRENDIPINE]
Hepatotoxicity (severe hepatitis) [1]: 0
Hepatotoxicity (moderate) [2]: 18.2%
Hepatotoxicity (moderate) [3]: 2
Hepatotoxicity (time to onset) [4]: 3 weeks
Hepatotoxicity (granulomatous hepatitis) [5]: 0
Hepatotoxicity (choleostasis) [6]: 0
Hepatotoxicity (chronic liver disease) [7]: 0
Hepatotoxicity (acute) [8]: 0%
Hepatotoxicity (steatosis) [9]: 0
Hepatotoxicity (benign tumour) [10]: 0
Hepatotoxicity (cytolytic) [11]: 0
Hepatotoxicity (cirrhosis) [12]: 0
Hepatotoxicity (acute) [13]: 1
Hepatotoxicity (malignant tumour) [14]: 0
Hepatotoxicity (association with vascular disease) [15]: 0
Hepatotoxicity (comment) [16]: AC_ANTI-N

CC1COc2c(N3CCN(C)CC3)c(F)cc3c(=O)c(C(=O)O)cn1c23 (stereo not drawn) [OFLOXACIN]
Hepatotoxicity (severe hepatitis) [1]: 2
Hepatotoxicity (moderate) [2]: 42.2%
Hepatotoxicity (moderate) [3]: 61
Hepatotoxicity (time to onset) [4]: 4 days - 26 weeks
Hepatotoxicity (granulomatous hepatitis) [5]: 1
Hepatotoxicity (choleostasis) [6]: 5
Hepatotoxicity (chronic liver disease) [7]: 0
Hepatotoxicity (acute) [8]: 18.2%
Hepatotoxicity (steatosis) [9]: 0
Hepatotoxicity (benign tumour) [10]: 0
Hepatotoxicity (cytolytic) [11]: 6
Hepatotoxicity (cirrhosis) [12]: 0
Hepatotoxicity (acute) [13]: 11
Hepatotoxicity (malignant tumour) [14]: 0
Hepatotoxicity (association with vascular disease) [15]: 0
Hepatotoxicity (comment) [16]: I/PYRAZINAMIDE

O=C(O)c1cc(/N=N/c2ccc(O)c(C(=O)O)c2)ccc1O [OLSALAZINE]
Hepatotoxicity (severe hepatitis) [1]: 0
Hepatotoxicity (moderate) [2]: 15%
Hepatotoxicity (moderate) [3]: 1
Hepatotoxicity (time to onset) [4]: 3 weeks
Hepatotoxicity (granulomatous hepatitis) [5]: 0
Hepatotoxicity (choleostasis) [6]: 1
Hepatotoxicity (chronic liver disease) [7]: 0
Hepatotoxicity (acute) [8]: 0%
Hepatotoxicity (steatosis) [9]: 0
Hepatotoxicity (benign tumour) [10]: 0
Hepatotoxicity (cytolytic) [11]: 1
Hepatotoxicity (cirrhosis) [12]: 0
Hepatotoxicity (acute) [13]: 1
Hepatotoxicity (malignant tumour) [14]: 0
Hepatotoxicity (association with vascular disease) [15]: 0
Hepatotoxicity (comment) [16]: RC/SULFASALAZINE

C[C@]12COC(=O)C[C@@H]1CC[C@@H]1[C@@H]2CC[C@@]2(C)[C@H]1CC[C@]2(C)O [OXANDROLONE]
Hepatotoxicity (severe hepatitis) [1]: 0
Hepatotoxicity (moderate) [2]: 0%
Hepatotoxicity (moderate) [3]: 0
Hepatotoxicity (time to onset) [4]: 6 months
Hepatotoxicity (granulomatous hepatitis) [5]: 0
Hepatotoxicity (choleostasis) [6]: 2
Hepatotoxicity (chronic liver disease) [7]: 0
Hepatotoxicity (acute) [8]: 0%
Hepatotoxicity (steatosis) [9]: 0
Hepatotoxicity (benign tumour) [10]: 1
Hepatotoxicity (cytolytic) [11]: 0
Hepatotoxicity (cirrhosis) [12]: 0
Hepatotoxicity (acute) [13]: 2
Hepatotoxicity (malignant tumour) [14]: 0
Hepatotoxicity (association with vascular disease) [15]: 0
Hepatotoxicity (comment) [16]: HNF

CCCCC1C(=O)N(c2ccccc2)N(c2ccc(O)cc2)C1=O (stereo not drawn) [OXYPHENBUTAZONE ANHYDROUS]
Hepatotoxicity (severe hepatitis) [1]: 3
Hepatotoxicity (moderate) [2]: 0%
Hepatotoxicity (moderate) [3]: 3
Hepatotoxicity (time to onset) [4]: 1 week - 2 months
Hepatotoxicity (granulomatous hepatitis) [5]: 5
Hepatotoxicity (choleostasis) [6]: 3
Hepatotoxicity (chronic liver disease) [7]: 0
Hepatotoxicity (acute) [8]: 0%
Hepatotoxicity (steatosis) [9]: 1
Hepatotoxicity (benign tumour) [10]: 0
Hepatotoxicity (cytolytic) [11]: 4
Hepatotoxicity (cirrhosis) [12]: 1
Hepatotoxicity (acute) [13]: 9
Hepatotoxicity (malignant tumour) [14]: 0
Hepatotoxicity (association with vascular disease) [15]: 0
Hepatotoxicity (comment) [16]: RC/PHENYLBUTAZONE
